For one compound, Kd results are on record in article PMC9505425, “Targeting of the Mitochondrial TET1 Protein by Pyrrolo[3,2-b]pyrrole Chelators” (International Journal of Molecular Sciences, 2022).

For this assay, the target named is T1, recombinant His-tagged TET1 protein (Homo sapiens, UniProt Q8NFU7).
T1 construct: purchased Active Motif, Carlsbad, CA, USA
The assay is described as follows: Microscale thermophoresis binding to His-tagged TET1. The following applies: MST, HEPES pH 7.5, 50 nM TET1. The method, then: We observed a ligand concentration-dependent decrease in labeled protein fluorescence (Figure 5), and fluorescence measurements during serial dilution were performed to discriminate between binding-specific fluorescence quenching (Figure 6) and loss of fluorescence due to protein precipitation.
For this test, the remainder of tubes 1 to 3 and 14 to 16 prepared in the original binding assay were centrifuged for 10 min at 15,000× g. Thereafter, 10 μL of each sample was removed and mixed with an equal volume of SD-mix (4% SDS and […] (assay buffer)) and heated to 95 °C for 5 min to denature the protein. Subsequently, samples were loaded to standard capillaries, and the fluorescence was detected using a Monolith NT.115. […] The KD value was calculated from ligand concentration-dependent changes in normalized fluorescence (Fnorm) of the TET1 protein after 25 s of thermophoresis, based on the law of mass action using the NT. Affinity Analysis software. […]
Microscale thermophoresis (MST) is a sensitive method that can be used to assess biomolecular interactions and has been utilized to study interactions between a variety of binding partners of different molecular sizes. […] Signals were recorded using 20% MST power and 40% LED power after 25 s. Measurement was repeated two times, and data were analyzed using the NTAnalysis software. […]
A general note: In MST a laser heats a spot of the sample, and binding alters the fluorescence response.

Molecules are shown by their SMILES.

T1 sequence (Q8NFU7 whole entry): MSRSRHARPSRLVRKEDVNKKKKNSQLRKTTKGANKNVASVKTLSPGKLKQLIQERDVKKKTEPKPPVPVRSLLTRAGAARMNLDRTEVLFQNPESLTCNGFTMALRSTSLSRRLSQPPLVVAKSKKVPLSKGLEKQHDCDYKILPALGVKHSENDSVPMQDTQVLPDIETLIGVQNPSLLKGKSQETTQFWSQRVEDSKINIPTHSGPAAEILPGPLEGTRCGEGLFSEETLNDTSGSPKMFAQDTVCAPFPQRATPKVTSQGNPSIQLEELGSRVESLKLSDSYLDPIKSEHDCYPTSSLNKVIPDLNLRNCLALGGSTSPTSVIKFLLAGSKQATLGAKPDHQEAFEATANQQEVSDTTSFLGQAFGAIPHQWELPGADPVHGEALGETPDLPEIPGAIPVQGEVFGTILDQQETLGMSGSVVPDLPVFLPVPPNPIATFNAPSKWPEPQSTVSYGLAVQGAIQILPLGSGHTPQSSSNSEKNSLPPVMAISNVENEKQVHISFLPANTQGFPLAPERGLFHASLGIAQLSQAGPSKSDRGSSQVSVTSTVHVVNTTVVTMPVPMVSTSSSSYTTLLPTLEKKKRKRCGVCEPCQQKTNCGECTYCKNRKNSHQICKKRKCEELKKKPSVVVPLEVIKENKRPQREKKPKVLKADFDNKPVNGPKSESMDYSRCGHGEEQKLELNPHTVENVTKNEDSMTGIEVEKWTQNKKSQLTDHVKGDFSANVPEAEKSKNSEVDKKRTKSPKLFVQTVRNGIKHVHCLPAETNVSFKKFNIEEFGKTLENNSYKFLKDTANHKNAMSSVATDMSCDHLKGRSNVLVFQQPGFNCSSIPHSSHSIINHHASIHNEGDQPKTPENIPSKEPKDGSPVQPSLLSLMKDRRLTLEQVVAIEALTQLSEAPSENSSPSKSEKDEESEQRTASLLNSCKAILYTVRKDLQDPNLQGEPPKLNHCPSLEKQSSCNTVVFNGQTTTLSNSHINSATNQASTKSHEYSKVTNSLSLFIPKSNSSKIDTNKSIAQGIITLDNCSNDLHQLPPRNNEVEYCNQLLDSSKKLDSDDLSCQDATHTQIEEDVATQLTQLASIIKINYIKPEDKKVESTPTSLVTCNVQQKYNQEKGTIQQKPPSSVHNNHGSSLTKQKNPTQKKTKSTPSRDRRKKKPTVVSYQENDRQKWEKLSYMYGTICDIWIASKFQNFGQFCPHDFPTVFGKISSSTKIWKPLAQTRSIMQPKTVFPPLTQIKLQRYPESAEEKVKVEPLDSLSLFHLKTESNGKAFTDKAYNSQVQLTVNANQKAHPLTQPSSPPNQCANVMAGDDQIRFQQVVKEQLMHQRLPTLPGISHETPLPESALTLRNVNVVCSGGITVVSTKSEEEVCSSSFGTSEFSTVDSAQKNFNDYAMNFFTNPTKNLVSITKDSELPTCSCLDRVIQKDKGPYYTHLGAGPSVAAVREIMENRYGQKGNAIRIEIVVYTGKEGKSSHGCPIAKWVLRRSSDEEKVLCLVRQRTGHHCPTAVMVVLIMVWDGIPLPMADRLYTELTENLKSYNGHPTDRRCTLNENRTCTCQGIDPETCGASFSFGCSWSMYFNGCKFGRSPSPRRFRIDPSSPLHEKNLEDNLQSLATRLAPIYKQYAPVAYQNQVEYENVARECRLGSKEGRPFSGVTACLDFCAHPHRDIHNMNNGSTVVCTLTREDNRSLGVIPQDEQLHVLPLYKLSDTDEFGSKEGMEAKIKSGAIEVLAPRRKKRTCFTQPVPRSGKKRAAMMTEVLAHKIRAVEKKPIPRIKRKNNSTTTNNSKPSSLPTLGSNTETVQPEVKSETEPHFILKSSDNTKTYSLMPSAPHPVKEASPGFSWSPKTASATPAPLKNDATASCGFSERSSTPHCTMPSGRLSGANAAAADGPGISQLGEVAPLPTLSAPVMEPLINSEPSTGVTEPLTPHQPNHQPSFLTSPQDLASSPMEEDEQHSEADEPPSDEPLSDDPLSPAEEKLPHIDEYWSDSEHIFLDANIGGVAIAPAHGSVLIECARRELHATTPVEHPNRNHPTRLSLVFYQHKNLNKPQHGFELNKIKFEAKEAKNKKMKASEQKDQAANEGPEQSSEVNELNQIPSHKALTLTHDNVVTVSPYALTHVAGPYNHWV

A word on the Kd: it is the concentration at which binding is half-saturated. For the compound `Cc1ccc(-n2c(-c3ccc(C(=O)NN)cc3)cc3c2cc(-c2ccc(C(=O)NN)cc2)n3-c2ccc(C)cc2)cc1` [Compound 1], the Kd was found to be 27.2 ± 0.9 µM.
